The values that follow come from PMC12916490 (Molecular Psychiatry, 2025).

pKi: −log10 of the molar value.

One test addresses T1, hα2A (Homo sapiens, UniProt P08913).
T1 construct: expressed in transfected cells; host or cells: Chinese hamster lung cells (membrane preparation)
T1 sequence (P08913 1-465): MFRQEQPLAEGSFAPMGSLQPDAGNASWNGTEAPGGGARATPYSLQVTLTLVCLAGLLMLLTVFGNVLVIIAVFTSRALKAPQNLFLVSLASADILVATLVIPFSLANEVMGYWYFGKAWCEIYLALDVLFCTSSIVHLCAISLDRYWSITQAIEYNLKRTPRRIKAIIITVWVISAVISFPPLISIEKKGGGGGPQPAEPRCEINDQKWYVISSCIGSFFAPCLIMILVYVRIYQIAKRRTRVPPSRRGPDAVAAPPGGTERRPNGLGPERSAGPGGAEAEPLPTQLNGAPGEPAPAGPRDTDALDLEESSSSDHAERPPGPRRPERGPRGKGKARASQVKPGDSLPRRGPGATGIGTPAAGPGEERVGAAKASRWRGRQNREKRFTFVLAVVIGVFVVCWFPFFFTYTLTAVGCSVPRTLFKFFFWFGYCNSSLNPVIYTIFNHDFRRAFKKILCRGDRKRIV
Nature of the test: Radioligand binding, hα2A receptor ([3H]rauwolscine). The procedure:
(§1) Binding affinities at human monoamine receptors and transporters were assessed as previously reported. A detailed description of the methodology is provided in the Supplementary information.
(§2) Data analysis was performed with Prism software (version 10.1.2, GraphPad Software, Boston, MA, USA). The IC50 values from the radioligand binding assays were determined by nonlinear regression, using three independent concentration-response curves fitted to a one-site model. The Cheng-Prusoff equation was used to calculate Kᵢ values for the competing ligands. EC50 values were determined by applying nonlinear regression to concentration-response curves. Bias factors (β) were calculated based on the relative intrinsic activity approach. More detailed information can be found in the Supplementary information. Mean values for total number of HTR, change in body temperature from pre to post session (Δ°C), and total distance traveled (cm) for each drug dose were compared (p < 0.05) via Welch’s ANOVA with Dunnett’s T3 post test, comparing all doses to respective vehicle controls (0 mg/kg). Welch’s ANOVA with Dunnett’s T3 post test was also used to compare drug concentrations, but the data were compared to DOM in this case. Dose–response relationships for HTR and locomotor activities were plotted using bell-shaped curve fits, while temperature change data were plotted using four-parameter non-linear regression curve fits. The ascending phase of the HTR curve for each drug was used to determine ED50 potency values from four parameter non-linear regression fits. For combined DOM and DOAM administration, the plasma, brain tissue, and brain dialysate drug concentrations were compared using paired t-tests (p < 0.05). Ratios were compared using Holm-Sidak’s post hoc test following a repeated-measures one-way ANOVA (F (1.709, 6.835) = 70.80; p < 0.0001).
(§3) 3.1 Assessment of receptor and transporter binding affinities
(§4) Membrane preparations were prepared from cells transfected with the respective target. The membrane preparations were then incubated with selective radioligands at concentrations equal to the corresponding Kd and displacement of the ligand by the drugs was measured. The difference between total binding and nonspecific binding (determined in the presence of selective competitors) was defined as specific binding of the radioligand to the target receptor. The following transfected cell lines were used for the binding assays: HEK 293 cells (h5-HT1A, h5-HT2A, h5-HT2B, h5-HT2C, and hD2 receptors, hDAT, hNET, and hSERT), Chinese hamster ovary cells (hα 1A receptor), and Chinese hamster lung cells (hα 2A receptor).
(§5) 3.1.1 Membrane preparations for receptor and transporter binding
(§6) For producing membrane preparations, transfected cells were harvested with trypsin/EDTA, washed with ice-cold phosphate buffered saline, and then pelleted by centrifugation (210 × g for 5 min at 4 °C). The pellets were frozen and stored at -80 °C until use. Frozen pellets were resuspended in 20 m L (receptor binding) or 400 m L (transporter binding) buffer (20 mM HEPES -NaOH, 10 mM EDTA, pH 7.4), and homogenized at 1,100 × g for 20 s (receptor binding) or 560 × g for 15 s (transporter binding); the homogenates were then centrifuged at 48,000 × g for 30 min at 4 °C. For receptor binding assays, the supernatants were discarded and the pellets were resuspended in 20 mL buffer (20 mM HEPES-NaOH, 0.1 mM EDTA, pH 7.4) and homogenized at 1 ,100 × g for 20 s. Centrifugation and discarding of the supernatant were repeated once, and the final pellet was then resuspended in buffer and homogenized.
(§7) 3.1.2 Serotonin 5-HT1A and 5-HT2A receptor binding
Competitive binding at the h5-HT1A and h5-HT2A receptor was determined using 0.90 nM [ 3H]8-hydroxy-2-(di-n-propylamine)tetralin ([ 3H]8-OH-DPAT; h5-HT1A receptor agonist) and 0.40 nM [3H]ketanserin (h5-HT2 receptor antagonist) as radioligands. The density and affinity of [ 3H]8-OH-DPAT […]

In another test the target is T2, hNET (Homo sapiens, UniProt P23975).
T2 construct: expressed in transfected cells; host or cells: HEK 293 cells (membrane preparation)
T2 sequence (P23975 whole entry): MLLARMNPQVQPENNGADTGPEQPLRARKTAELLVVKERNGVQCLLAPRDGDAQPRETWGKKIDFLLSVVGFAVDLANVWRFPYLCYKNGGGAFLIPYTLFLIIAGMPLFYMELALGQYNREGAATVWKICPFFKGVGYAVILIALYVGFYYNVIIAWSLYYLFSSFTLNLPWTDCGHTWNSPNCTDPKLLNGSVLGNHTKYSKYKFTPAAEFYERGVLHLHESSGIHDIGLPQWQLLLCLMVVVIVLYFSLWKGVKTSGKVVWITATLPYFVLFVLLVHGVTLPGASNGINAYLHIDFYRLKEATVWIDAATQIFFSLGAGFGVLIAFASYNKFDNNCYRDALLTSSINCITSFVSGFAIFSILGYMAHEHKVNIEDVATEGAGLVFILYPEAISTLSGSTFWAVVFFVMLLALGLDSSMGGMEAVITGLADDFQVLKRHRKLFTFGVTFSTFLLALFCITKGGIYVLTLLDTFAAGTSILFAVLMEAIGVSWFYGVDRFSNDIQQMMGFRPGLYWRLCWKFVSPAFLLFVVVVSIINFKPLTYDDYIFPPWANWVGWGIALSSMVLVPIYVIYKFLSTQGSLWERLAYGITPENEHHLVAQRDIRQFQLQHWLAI
In words: Radioligand binding, hNET (N-methyl-[3H]nisoxetine). The procedure:
as §1
as §2, with “The” for “Data analysis was performed with Prism software (version 10.1.2, GraphPad Software, Boston, MA, USA). The”, “0.05).” for “0.05). Ratios were compared using Holm-Sidak’s post hoc test following a repeated-measures one-way ANOVA (F (1.709, 6.835) = 70.80; p < 0.0001).”
as §3, §4, §5, §6, §7
(§8) Competitive binding at the h5-HT1A and h5-HT2A receptor was determined using 0.90 nM [ 3H]8-hydroxy-2-(di-n-propylamine)tetralin ([ 3H]8-OH-DPAT; h5-HT1A receptor agonist) and 0.40 nM [3H]ketanserin (h5-HT2 receptor antagonist) as radioligands. […]
(§9) binding of the radioligands was defined as difference between total binding (binding buffer alone) and nonspecific binding determined in the presence of 10 μM pindolol (h5-HT1A receptor antagonist) or 10 μM spiperone (h 5-HT2A receptor antagonist).

The next test deals with T3, hSERT (Homo sapiens, UniProt P31645).
T3 construct: expressed in transfected cells; host or cells: HEK 293 cells (membrane preparation)
T3 sequence (P31645 whole entry): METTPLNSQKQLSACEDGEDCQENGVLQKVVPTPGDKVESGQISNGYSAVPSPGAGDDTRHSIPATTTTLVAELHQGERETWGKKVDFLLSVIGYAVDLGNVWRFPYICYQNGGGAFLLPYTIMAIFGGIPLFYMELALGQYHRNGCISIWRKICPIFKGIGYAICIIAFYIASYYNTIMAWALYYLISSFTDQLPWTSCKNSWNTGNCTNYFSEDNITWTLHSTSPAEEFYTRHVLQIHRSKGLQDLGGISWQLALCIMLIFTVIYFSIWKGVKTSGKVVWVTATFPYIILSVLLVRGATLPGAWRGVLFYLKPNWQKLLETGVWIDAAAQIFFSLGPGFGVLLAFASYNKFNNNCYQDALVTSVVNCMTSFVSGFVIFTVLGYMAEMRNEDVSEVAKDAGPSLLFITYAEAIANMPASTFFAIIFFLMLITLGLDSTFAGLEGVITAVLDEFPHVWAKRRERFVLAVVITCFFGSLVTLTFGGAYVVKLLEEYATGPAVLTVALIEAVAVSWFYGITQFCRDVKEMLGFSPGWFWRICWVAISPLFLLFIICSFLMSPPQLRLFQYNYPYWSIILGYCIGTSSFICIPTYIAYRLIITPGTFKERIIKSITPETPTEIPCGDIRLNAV
In words: Radioligand binding, hSERT ([3H]citalopram). The procedure:
as §1
as §2, with “The” for “Data analysis was performed with Prism software (version 10.1.2, GraphPad Software, Boston, MA, USA). The”, “0.05).” for “0.05). Ratios were compared using Holm-Sidak’s post hoc test following a repeated-measures one-way ANOVA (F (1.709, 6.835) = 70.80; p < 0.0001).”
as §3, §4, §5, §6, §7, §8, §9

Setting [1] is: hSERT Ki, mean (95% CI), HEK 293 membranes.

As for `COc1ccc(OC)c(CC(C)N)c1.Cl` (stereo not shown) [2,5-DMA, 2,5-Dimethoxyamphetamine hydrochloride], the negative-log Ki (pKi) (as a rule, the negative decadic logarithm of the Ki, by convention in mol/L) is 5.36 at hα2A, below 5.10 on hNET and below 5.15 on hSERT (setting [1]).

In the case of `CCCCCc1cc(OC)c(CC(C)N)cc1OC` (stereo not shown) [DOAM, 4-amyl-2,5-dimethoxyamphetamine], the pKi on hα2A was 5.64; on hNET, below 5.10; at hSERT (Ki SERT, text value (range DAT and SERT 3.6–4.6)), 5.34; on hSERT (setting [1]), 5.33.

On to `CCCCc1cc(OC)c(CC(C)N)cc1OC` (stereo not shown) [DOBU, 4-butyl-2,5-dimethoxyamphetamine], for which the pKi was 5.77 on hα2A, below 5.10 on hNET and below 5.15 on hSERT (setting [1]).

Consider `CCc1cc(OC)c(CC(C)N)cc1OC` (stereo not shown) [DOET, 4-ethyl-2,5-dimethoxyamphetamine], for which the pKi was below 5.30 at hα2A, below 5.10 at hNET and below 5.15 at hSERT (setting [1]).

On to `COc1cc(CC(C)N)c(OC)cc1C` (stereo not shown) [DOM, 4-methyl-2,5-dimethoxyamphetamine], for which the pKi at hα2A is below 5.30; at hNET, below 5.10; on hSERT (setting [1]), below 5.15.

With `CCCc1cc(OC)c(CC(C)N)cc1OC.Cl` (stereo not shown) [DOPR, 4-propyl-2,5-dimethoxyamphetamine hydrochloride], the pKi on hα2A is 6.29; at hNET it was below 5.10; on hSERT (setting [1]) it was below 5.15.
